Among the test systems are DMS 114 small cell lung; DU-145 prostate; HS 578T breast; MDA-MB-435; MDA-N; PC-3 prostate; SNB-78 CNS; T-47D breast.
Common to all, as to assay: growth of human tumour cells (NCI), 48 h

The structures appear in SMILES notation. “And” between values parts separate entries of the source, which are not always exact repeats. Identical values can stand only once.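 Cells were grown in 96-well plates and exposed to each compound for 48 hours at five concentrations; endpoints were interpolated linearly between bracketing concentrations, or set to the highest concentration if not reached. At the GI50, growth is halved. TGI is the concentration that stops growth completely.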

As to `CC1=NN(C(=O)c2ccccc2O)C(=O)/C1=C/c1ccc([N+](=O)[O-])cc1`, the TGI in the test with DMS 114 small cell lung is 7.81 µM; in the test with DU-145 prostate, > 100 µM; in the test with HS 578T breast, > 100 µM; in the test on MDA-MB-435, > 100 µM; in the test on MDA-N, > 100 µM; in the test on PC-3 prostate it was > 100 µM. Besides, the TGI in the test on SNB-78 CNS and in the test on T-47D breast was > 100 µM in each case. In addition, the GI50 is 0.327 µM with DU-145 prostate, 0.0903 µM in the test on MDA-N, 0.371 µM in the test on PC-3 prostate and 0.222 µM with T-47D breast.

`CC/C(Cc1ccccc1)=C(\c1ccc(OCCN2CCCCCC2)cc1)c1ccc(OC(=O)NCc2ccccc2)cc1`: the GI50 with DU-145 prostate is 3.52 µM; with HS 578T breast, 2.66 µM; with MDA-MB-435, 1.54 µM; with PC-3 prostate, 2.3 µM; with T-47D breast, 0.916 µM. Moreover, the TGI was 10.3 µM in the test with DU-145 prostate; 11.8 µM with HS 578T breast; 5.08 µM with MDA-MB-435; 8.36 µM in the test with PC-3 prostate; 7.91 µM in the test with T-47D breast.

Consider `Nc1ncnc2c1ncn2C1OC(COP(=O)(O)CP(=O)(O)O)C(O)C1O` (stereo unspecified), for which the TGI with DU-145 prostate, in the test on HS 578T breast, with MDA-MB-435, in the test on MDA-N, in the test on PC-3 prostate and in the test with T-47D breast was > 100 µM each time.

Regarding `O=C(O)CSCc1cccc2ccccc12`, the TGI in the test on DU-145 prostate, in the test with HS 578T breast, with MDA-MB-435, in the test with MDA-N, in the test on PC-3 prostate and in the test on T-47D breast was > 100 µM in each case.

`COc1ccc(C#Cc2ccccc2C#CCCCCO)cc1`: the GI50 is 21.3 µM in the test on DU-145 prostate; 28.3 µM with HS 578T breast; 21.1 µM with MDA-MB-435; 21.9 µM in the test on PC-3 prostate; 22 µM in the test on T-47D breast. For the same compound, the TGI in the test with DU-145 prostate stood at 52.6 µM; in the test on HS 578T breast, 65.1 µM; in the test on MDA-MB-435 it was 38.9 µM; in the test with PC-3 prostate, 42.6 µM; in the test with T-47D breast, 43.8 µM.

As for `C#CCC[C@@H]1O[C@@]1(C)CC/C=C(\C)CC/C=C/C=O`, the TGI with DMS 114 small cell lung was determined as 35.1 µM; with SNB-78 CNS, 77.3 µM.

`COC1=CC(c2ccc[nH]2)=N/C1=C\c1[nH]c(C)c(C(=O)OCc2ccccc2)c1C`: the GI50 with DU-145 prostate is 0.0917 µM; in the test on HS 578T breast, 0.0804 µM; with MDA-MB-435 it was 0.0557 µM; in the test with PC-3 prostate, 0.112 µM; in the test with T-47D breast, 0.252 µM. The TGI in the test on DU-145 prostate came to 1.92 µM; with HS 578T breast, 0.662 µM; with MDA-MB-435, 1.31 µM; with PC-3 prostate, 20.6 µM; in the test with T-47D breast it was 1.6 µM.

For `CC1=CCC[C@@]2(C)C(CC[C@@H]2C(C)/C=C/C(C)C)c2ccc(cc2C(=O)O)C[C@@H](O)CC1` (stereo partly specified), the values for the TGI with DMS 114 small cell lung and in the test with SNB-78 CNS were 40.3 µM and 34.5 µM, respectively.

`C=C1C(=O)O[C@H]2[C@H]1CC/C(CNC(=O)/C=C/c1ccc(Br)cc1)=C\CC[C@@]1(C)O[C@@H]21`: the GI50 with DU-145 prostate is 0.743 µM; in the test with HS 578T breast it was 1.44 µM; with MDA-MB-435, 0.632 µM; in the test on PC-3 prostate, 1.47 µM; in the test with T-47D breast, 1.74 µM. Also, the TGI in the test on DU-145 prostate was determined as 2.02 µM; in the test with HS 578T breast, 4.43 µM; in the test on MDA-MB-435 it was 2.07 µM; in the test with PC-3 prostate, 3.24 µM; with T-47D breast, 4.73 µM.

With `CN(C)CCCOc1ccccc1NC1=C(Cl)C(=O)C(Nc2ccccc2OCCCN(C)C)=C(Cl)C1=O`, the GI50 was 0.709 µM in the test on DU-145 prostate; 1.83 µM in the test with HS 578T breast; 0.636 µM in the test on MDA-MB-435; 0.696 µM in the test with PC-3 prostate; 0.209 µM in the test with T-47D breast. The TGI with DU-145 prostate amounted to 1.77 µM; in the test on HS 578T breast, 5.46 µM; in the test with MDA-MB-435, 1.44 µM; with PC-3 prostate it was 2.19 µM; in the test on T-47D breast, 0.591 µM.

Turning to `Cc1nc2sccn2c1/C=C1/C(=O)Nc2ccccc21`, the GI50 with DU-145 prostate is 24.4 µM; in the test with HS 578T breast, 19.4 µM; in the test on MDA-MB-435, 0.582 µM; in the test on PC-3 prostate, 12.3 µM; with T-47D breast, 0.499 µM. Also, the TGI is > 100 µM in the test on DU-145 prostate; > 78.1 µM in the test on HS 578T breast; 11 µM in the test on MDA-MB-435; > 100 µM with PC-3 prostate; > 100 µM with T-47D breast.

For the compound `O=C(O)c1ccccc1Cc1ccco1`, the TGI in the test on DMS 114 small cell lung and in the test on SNB-78 CNS was > 100 µM each time.

For the compound `Cc1ccc(NCCCN2CCN(CCCNc3ccc(C)c4sc5ccccc5c(=O)c34)CC2)c2c(=O)c3ccccc3sc12`, the TGI with DU-145 prostate is > 100 µM; in the test on HS 578T breast it was 79.6 µM; with MDA-MB-435 it was > 100 µM; in the test on MDA-N, > 100 µM; in the test on PC-3 prostate, > 100 µM; in the test with T-47D breast it was > 100 µM.

As for `COc1cc2c(cc1O)C=NCC2`, the TGI in the test on DMS 114 small cell lung and with SNB-78 CNS was > 100 µM each time.

`NNC(=S)N/N=C(\CCCC(=O)NCCc1ccccc1)CC(=O)c1ccccc1`: the TGI with DMS 114 small cell lung and in the test on SNB-78 CNS was > 100 µM throughout.

Regarding `Nc1ccn(C2OC(CO)C(O)C2F)c(=O)n1` (stereo unspecified), the GI50 with DU-145 prostate is > 5000 µM; in the test with HS 578T breast, > 5000 µM; in the test on MDA-MB-435, 867 µM and > 5000 µM; in the test on PC-3 prostate, > 5000 µM; in the test on T-47D breast, > 5000 µM. In addition, the TGI in the test with DU-145 prostate, in the test with HS 578T breast, in the test on MDA-MB-435, in the test with PC-3 prostate and with T-47D breast was > 5000 µM in each case.

Consider `C=CCC1OC(C)(C)Oc2ccc(OCOCCOC)cc21` (stereo unspecified), for which the TGI in the test on DMS 114 small cell lung was > 100 µM.

For the compound `C(=Nc1ccccc1)C1CCCC[N-]1.C(=Nc1ccccc1)C1CCCC[N-]1.[Cu+2].[O-][Cl+3]([O-])([O-])O` (stereo unspecified), the GI50 is 8.48 µM in the test with DU-145 prostate; 30.3 µM with HS 578T breast; 1.57 µM with MDA-MB-435; 12.3 µM with PC-3 prostate; 21.6 µM in the test on T-47D breast. Moreover, the TGI in the test on DU-145 prostate was 36.9 µM; with HS 578T breast, > 89.5 µM; in the test with MDA-MB-435, 4.31 µM; with PC-3 prostate, 34.2 µM; with T-47D breast, > 100 µM.

These data come from PubChem BioAssay (NCI).
